Measured values published in patent US8088753B2, “Heparin conjugates and methods” (Mediplex Corporation, Korea, priority 2007, dated 2012).

Tested on: SCC cells
Type: in vivo, C3H/HeN mice
Details: 5 mg/kg intraperitoneal twice weekly; Example 7, FIG. 8

Substance: bevacizumab: FDA-approved anti-angiogenic monoclonal antibody that binds the receptor binding domain of VEGF
- tumor growth inhibition compared with the control: about 74%
